Measured values: patent US20080125406A1, “Method for Treating Primary and Secondary Forms of Glaucoma” (priority 2005, published 2008)
“And” between values parts separate entries of the source, which are not always exact repeats. Equal entries are not always repeated.

Legend:
[1] = system: IOP of patients with primary open angle glaucoma; experiment: Single anterior juxtascleral depot (AJD) of anecortave acetate in glaucoma patients, Example 2; format: in vivo, human (patients); details: single ~24 mg AJD
Source text: Methods: An investigator IND and IRB approval was obtained. All patients gave informed consent. […] Prior glaucoma medications were not changed throughout study. Results: Six subjects with glaucoma and IOP≧23 mmHg (POAG [4], PDS [1], PXF [1]) mean age 59+/−8 years. Mean C/D ratio 0.8+/−0.2. Prior glaucoma medications included prostaglandins, beta blockers and/or alpha agonists (four on 1, one on 3, and one on 4). Mean pretreatment IOP was 31.3+/−11.3 mmHg. […] Patients were followed for twelve (12) months. The IOP-lowering effects peaked at approximately one month. The duration of effectiveness of the anecortave acetate was at least twelve (12) months. […] Treatment with prior glaucoma medications was discontinued for two patients due to the surprising IOP-lowering effects of the juxtasclerally administered anecortave acetate. This new method of treatment obviates problems with eye drops and many issues with compliance. Clinically meaningful additional medium-term IOP reduction is possible with a single anterior juxtascleral depot injection of anecortave acetate, much more than presently obtained with any currently available adjunctive medications.

[2] = system: IOP of patients with glaucoma caused by intravitreal injections of glucocorticoids; experiment: Single administration of anecortave acetate in patients with glaucoma caused by intravitreal glucocorticoids, Example 3; format: in vivo, human (patients)
Source text: All patients were on maximal tolerated medical therapy for glaucoma and continued on their pre-study medications for the duration of the study.
In this group of eight eyes, three of which had prior intraocular surgery, and all of which were on at least three different types of glaucoma medications (maximum 6 medications and a mean of 4.1 different drug classes) the IOP decrease was seen as early as one week (mean 11.4 mm Hg), and appeared to reach a maximum decrease at three weeks (mean 16.4 mm Hg). FIG. 3 illustrates the decrease in IOP observed in these patients for twenty months.

IOP of patients = experiment: Randomized dose study of anecortave acetate AJD 3, 15, 30 mg vs vehicle, Example 6; format: in vivo, human (patients)
Method: Eligible patients were randomized into four groups to receive AJD as follows: • Anecortave acetate vehicle, 0.5 mL (21 patients) • Anecortave acetate 3 mg (0.5 mL, 0.6% suspension) (22 patients) • Anecortave acetate 15 mg (0.5 mL, 3% suspension) (20 patients) • Anecortave acetate 30 mg (0.5 mL, 6% suspension) (22 patients).
The site of the AJD injection was 3-5 mm from the limbus, inferiorly (between 4 and 8 o'clock, FIG. 1), and the drug was injected slowly (30-90 sec) using a 30 gauge needle.

[3] = system: myocilin expression in trabecular meshwork cells; details: cultured trabecular meshwork cells; cited from earlier work
[4] = system: IOP elevation associated with topical dexamethasone; details: topical administration, rabbits; cited from earlier work
[5] = system: IOP of Dutch Belted rabbits having elevated IOP; experiment: Brinzolamide anterior sub-Tenon's or topical administration in rabbits with elevated IOP, Example 4; format: in vivo; details: for mean percent IOP change from baseline compared to BSS control: over 7 days
Method: Eyes of Dutch Belted rabbits having elevated IOP were injected in the anterior segment with a carbonic anhydrase inhibitor.
Methods: Baseline IOP was measured daily for 5 days and averaged. Seven rabbits received one anterior sub-Tenon's capsule administration of 800 μl of a non-optimized 1% ophthalmic suspension of brinzolamide (AZOPT®). Seven rabbits received a 1% ophthalmic suspension of brinzolamide (AZOPT®) delivered topically once per day for seven days. Seven rabbits received one anterior sub-Tenon's administration of 800 μl of BSS®. IOP was monitored daily at 2 hours after topical drops were administered, for seven days, and weekly thereafter until IOP measurements remained the same as baseline for two measurements. […] Mean pretreatment IOP was 27.41 mm Hg. Mean change in IOP for this group was +0.18 mm Hg. Rabbits receiving either daily topical administration or subtenon's injection of brinzolamide experienced sustained lowering of IOP. For the topical administration group mean pretreatment IOP was 28.37 mm Hg. Mean change in IOP for this group was −2.48 mm Hg. […] For the group receiving one anterior subtenon's administration of a 1% brinzolamide ophthalmic suspension the mean pretreatment IOP was 27.44 mm Hg. Mean change in IOP for this group was −1.85 mm Hg. […] (See FIG. 4). […] Longer duration of action of the brinzolamide suspension from the subtenon's capsule could be achieved using higher concentration suspensions (e.g. 5% or 10%) or via encapsulation in sustained release dose forms such as microspheres.

IOP = details: intravitreal injection (Singh et al. 2004); cited from earlier work
[6] = mean pretreatment IOP 31.3+/-11.3 mmHg

CC(=O)OCC(=O)[C@@]1(O)CC[C@H]2[C@@H]3CCC4=CC(=O)CC[C@]4(C)C3=CC[C@@]21C [anecortave acetate, 4, 9(11)-pregnadien-17∝,21-diol-3,20-dione-21-acetate]
mean IOP decrease at 3 months (percent) [1]: 38.5%+/−21% | time at which IOP-lowering effects peaked [1]: approximately one | clinically significant adverse events ([1]; followed 12 months): No clinically significant adverse events occurred | duration of effectiveness ([1]; followed 12 months): ≥ 12 months | patients with >25% IOP decrease at 3 months ([1]; prior glaucoma medications unchanged, six subjects, IOP>=23 mmHg): Five of six | mean IOP at 3 months [1, 6]: 16.4+/−6 mm Hg | mean IOP decrease at 3 months [1, 6]: 10.8+/−7.0 mmHg | patients whose prior glaucoma medications were discontinued due to IOP-lowering effect ([1]; six subjects): two | IOP, individual eyes, 1 week ([2]; 1 week after single ~24 mg, baselines 34-57): 30 mm Hg (2×) and 34 mm Hg (2×) and 24 mm Hg (2×) and 23 mm Hg | Mean IOP, 1 week ([2]; 1 week, mean baseline 40.125): 28.43 mm Hg | IOP, individual eyes, 2 mon ([2]; 2 mon after single ~24 mg): 30 mm Hg and 24 mm Hg and 16 mm Hg and 19 mm Hg and 23 mm Hg | Mean IOP, 2 mon ([2]; 2 mon, mean baseline 40.125): 22 mm Hg | IOP, individual eyes, 2 weeks ([2]; 2 weeks after single ~24 mg, baselines 34-57): 28 mm Hg (2×) and 32 mm Hg and 19 mm Hg (2×) and 23 mm Hg and 35 mm Hg | Mean IOP, 2 weeks ([2]; 2 weeks, mean baseline 40.125): 24.8 mm Hg | IOP, individual eyes, 3 mon ([2]; 3 mon after single ~24 mg): 32 mm Hg and 18 mm Hg (2×) and 21 mm Hg and 19 mm Hg | Mean IOP, 3 mon ([2]; 3 mon, mean baseline 40.125): 19.3 mm Hg | IOP, individual eyes, 3 weeks ([2]; 3 weeks after single ~24 mg): 30 mm Hg and 17 mm Hg and 19 mm Hg (2×) and 37 mm Hg | Mean IOP, 3 weeks ([2]; 3 weeks, mean baseline 40.125): 24.4 mm Hg | IOP, individual eyes, 4 mon ([2]; 4 mon after single ~24 mg): 17 mm Hg and 16 mm Hg and 23 mm Hg and 21 mm Hg | Mean IOP, 4 mon ([2]; 4 mon, mean baseline 40.125): 20 mm Hg | IOP, individual eyes, 4 weeks ([2]; 4 weeks after single ~24 mg): 30 mm Hg (2×) and 28 mm Hg and 31 mm Hg and 14 mm Hg and 21 mm Hg and 19 mm Hg and 36 mm Hg | Mean IOP, 4 weeks ([2]; 4 weeks, mean baseline 40.125): 26.1 mm Hg | IOP, individual eyes, 5 mon ([2]; 5 mon after single ~24 mg): 15 mm Hg and 17 mm Hg and 21 mm Hg and 22 mm Hg | Mean IOP, 5 mon ([2]; 5 mon, mean baseline 40.125): 20 mm Hg | IOP, individual eyes, 6 mon ([2]; 6 mon after single ~24 mg): 19 mm Hg (3×) and 15 mm Hg | Mean IOP, 6 mon ([2]; 6 mon, mean baseline 40.125): 17.6 mm Hg | IOP, individual eyes, 6.2 mon ([2]; 6.2 mon after single ~24 mg): 26 mm Hg | IOP, individual eyes, 6.5 mon ([2]; 6.5 mon after single ~24 mg): 38 mm Hg | IOP, individual eyes, 7 mon ([2]; 7 mon after single ~24 mg): 17 mm Hg and 18 mm Hg (2×) | Mean IOP, 7 mon ([2]; 7 mon, mean baseline 40.125): 17.6 mm Hg | Mean IOP, 8 mon ([2]; 8 mon): 26.5 mm Hg | IOP, individual eyes, 8 mon ([2]; 8 mon after single ~24 mg): 31 mm Hg and 22 mm Hg | Mean IOP, 9 mon ([2]; 9 mon): 17.3 mm Hg | IOP, individual eyes, 9 mon ([2]; 9 mon after single ~24 mg): 15 mm Hg and 19 mm Hg and 18 mm Hg | Mean IOP, 12 mon ([2]; 12 mon): 19.6 mm Hg | IOP, individual eyes, 12 mon ([2]; 12 mon after single ~24 mg): 15 mm Hg and 22 mm Hg (2×) | Mean IOP, 13 mon ([2]; 13 mon): 19.6 mm Hg | IOP, individual eyes, 13 mon ([2]; 13 mon after single ~24 mg): 18 mm Hg and 22 mm Hg and 19 mm Hg | Mean IOP, 14 mon ([2]; 14 mon): 25.5 mm Hg | IOP, individual eyes, 14 mon ([2]; 14 mon after single ~24 mg): 25 mm Hg and 26 mm Hg | Mean IOP, 15 mon ([2]; 15 mon): 24 mm Hg | IOP, individual eyes, 15 mon ([2]; 15 mon after single ~24 mg): 26 mm Hg and 22 mm Hg | Mean IOP, 17 mon ([2]; 17 mon): 18.5 mm Hg | IOP, individual eyes, 17 mon ([2]; 17 mon after single ~24 mg): 19 mm Hg and 18 mm Hg | Mean IOP, 18 mon ([2]; 18 mon): 18 mm Hg | IOP, individual eyes, 18 mon ([2]; 18 mon after single ~24 mg): 19 mm Hg and 17 mm Hg | IOP, individual eyes, 20 mon ([2]; 20 mon after single ~24 mg): 16 mm Hg | IOP decrease in all eyes ([2]; eight eyes, single ~24 mg): All eyes had marked IOP decrease | mean IOP decrease at one week ([2]; eight eyes, single ~24 mg): 11.4 mm Hg | mean IOP decrease at three weeks (maximum decrease) ([2]; eight eyes, single ~24 mg): 16.4 mm Hg | IOP decrease in one eye at 2 months ([2]; eye that needed filtration surgery, resultant IOP 30 mm Hg): 45% | time for which recurrence of elevated IOP was prevented ([2]; remaining five eyes, IOP elevation due to triamcinolone reversed): up to 12 months | adverse events ([2]; single ~24 mg): without adverse events | duration of IOP reductions ([2]; single ~24 mg): at least 6 months | patients avoiding glaucoma filtration surgery ([2]; single ~24 mg): 75% | patients who maintained an IOP of ≦21 mm Hg for 3 months (IOP of patients; 3 mg group (22 patients)): 7 patients | patients who maintained an IOP of ≦21 mm Hg for 3 months (IOP of patients; 15 mg group (20 patients)): 6 patients | patients who maintained an IOP of ≦21 mm Hg for 3 months (IOP of patients; 30 mg group (22 patients)): 11 patients | duration of IOP reductions after a single administration (IOP of patients; p<0.05 for all concentrations relative to vehicle at month 3, ANOVA): ≥ 3 months | effect on dexamethasone induced myocilin expression [3]: inhibition | effect on IOP elevation associated with topical dexamethasone [4]: decreases the IOP elevation

CCN[C@H]1CN(CCCOC)S(=O)(=O)c2sc(S(N)(=O)=O)cc21 [brinzolamide]
maximum IOP lowering from baseline ([5]; 1% suspension topically once per day for seven days): 11.1% | Mean change in IOP ([5]; 1% suspension topically once per day for seven days, mean pretreatment IOP 28.37 mm Hg): −2.48 mm Hg | time of peak levels of IOP change ([5]; both topical and subtenon's groups): ≤ 3 days | maximum percent IOP lowering ([5]; one anterior sub-Tenon's administration of 800 μl 1% suspension): 15.9% | Mean change in IOP ([5]; one anterior sub-Tenon's administration of 800 μl 1% suspension, mean pretreatment IOP 27.44 mm Hg): −1.85 mm Hg | mean percent IOP change from baseline compared to BSS control ([5]; subtenon's injection group): statistically lower at all points | mean percent IOP change from baseline compared to BSS control ([5]; topical administration group): statistically lower at all points

CC1(C)O[C@@H]2C[C@H]3[C@@H]4CCC5=CC(=O)C=C[C@]5(C)[C@@]4(F)[C@@H](O)C[C@]3(C)[C@]2(C(=O)CO)O1 [triamcinolone, triamcinolone acetonide]
IOP reached (IOP): ~60 mm Hg | earliest onset of IOP elevation (IOP): 4 days
